One assay concerns the target T1, SgK110 (Homo sapiens, UniProt P0C264).
T1 construct: purchased Eurofins DiscoverX KINOMEscan
Briefly: KINOMEscan 1 μM, SgK110. The assay is classed as binding. Particulars: 1000 nM; Entrez SgK110; read-out: Percent Control. An excerpt:
(§1) Supplement cells-12-00287-s001.zip/File S2. KinomeScan data for the CAMKK2 probe and negative control.xlsx, sheet "SGC-CAMKK2-1" | column: Percent Control

The next assay addresses T2, PAK6 (Homo sapiens, UniProt Q9NQU5).
T2 construct: purchased Eurofins DiscoverX KINOMEscan
As to the kind of experiment: KINOMEscan 1 μM, PAK6. Particulars: 1000 nM; Entrez PAK6; read-out: Percent Control. The assay is classed as binding.
Source text: as §1

The target in assay [1] is T3, ABL1(F317L)-nonphosphorylated (Homo sapiens, UniProt P00519, F317L).
T3 construct: purchased Eurofins DiscoverX KINOMEscan
Briefly: KINOMEscan 1 μM, ABL1(F317L)-nonphosphorylated. The assay is classed as binding. Particulars: 1000 nM; Entrez ABL1; read-out: Percent Control.
Source text: as §1

The target of the next assay is T4, TRKC (Homo sapiens, UniProt Q16288).
T4 construct: purchased Eurofins DiscoverX KINOMEscan
Briefly: KINOMEscan 1 μM, TRKC. The assay is classed as binding. Particulars: 1000 nM; Entrez NTRK3; read-out: Percent Control.
Source text: as §1

Assay [2] has as its target T5, MST1R (Homo sapiens, UniProt Q04912).
T5 construct: purchased Eurofins DiscoverX KINOMEscan
As to the kind of experiment: KINOMEscan 1 μM, MST1R. The assay is classed as binding. Particulars: 1000 nM; Entrez MST1R; read-out: Percent Control.
Source text: as §1

The target in another assay is T6, FLT3(D835H) (Homo sapiens, UniProt P36888, D835H).
T6 construct: purchased Eurofins DiscoverX KINOMEscan
As to the kind of experiment: KINOMEscan 1 μM, FLT3(D835H). Particulars: 1000 nM; Entrez FLT3; read-out: Percent Control. The assay is classed as binding.
Source text: as §1

For assay [3], the target named is T7, JAK1(JH2domain-pseudokinase) (Homo sapiens, UniProt P23458).
T7 construct: JAK1(JH2domain-pseudokinase); purchased Eurofins DiscoverX KINOMEscan
As to the kind of experiment: KINOMEscan 1 μM, JAK1(JH2domain-pseudokinase). The assay is classed as binding. Particulars: 1000 nM; Entrez JAK1; read-out: Percent Control.
Source text: as §1

The next assay deals with T8, RIOK1 (Homo sapiens, UniProt Q9BRS2).
T8 construct: purchased Eurofins DiscoverX KINOMEscan
T8 sequence (Q9BRS2 whole entry): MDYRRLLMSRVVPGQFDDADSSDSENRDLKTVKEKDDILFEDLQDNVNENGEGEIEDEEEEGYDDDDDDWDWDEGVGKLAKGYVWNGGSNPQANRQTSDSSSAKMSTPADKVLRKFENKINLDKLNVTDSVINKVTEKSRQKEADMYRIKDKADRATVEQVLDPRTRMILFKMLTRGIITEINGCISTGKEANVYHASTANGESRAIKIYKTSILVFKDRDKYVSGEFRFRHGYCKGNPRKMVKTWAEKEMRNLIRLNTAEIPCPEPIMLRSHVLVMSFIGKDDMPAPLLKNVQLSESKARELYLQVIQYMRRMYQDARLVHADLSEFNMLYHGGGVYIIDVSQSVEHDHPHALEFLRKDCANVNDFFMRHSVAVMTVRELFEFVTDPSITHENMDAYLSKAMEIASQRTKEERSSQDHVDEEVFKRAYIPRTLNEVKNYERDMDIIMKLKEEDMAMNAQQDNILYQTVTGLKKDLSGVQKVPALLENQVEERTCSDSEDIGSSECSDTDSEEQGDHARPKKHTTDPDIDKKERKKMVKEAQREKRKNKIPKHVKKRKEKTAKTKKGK
As to the kind of experiment: KINOMEscan 1 μM, RIOK1. The assay is classed as binding. Particulars: 1000 nM; Entrez RIOK1; read-out: Percent Control.
Source text: as §1

In the next assay the target is T9, ADCK3 (Homo sapiens, UniProt Q8NI60).
T9 construct: purchased Eurofins DiscoverX KINOMEscan
As to the kind of experiment: KINOMEscan 1 μM, ADCK3. The assay is classed as binding. Particulars: 1000 nM; Entrez CABC1; read-out: Percent Control.
Source text: as §1

The next assay has as its target T10, CAMK2G (Homo sapiens, UniProt Q13555).
T10 construct: purchased Eurofins DiscoverX KINOMEscan
As to the kind of experiment: KINOMEscan 1 μM, CAMK2G. Particulars: 1000 nM; Entrez CAMK2G; read-out: Percent Control. The assay is classed as binding.
Source text: as §1

A further assay concerns the target T11, CLK3 (Homo sapiens, UniProt P49761).
T11 construct: purchased Eurofins DiscoverX KINOMEscan
As to the kind of experiment: KINOMEscan 1 μM, CLK3. The assay is classed as binding. Particulars: 1000 nM; Entrez CLK3; read-out: Percent Control.
Source text: as §1

The target of another assay is T12, CLK4 (Homo sapiens, UniProt Q9HAZ1).
T12 construct: purchased Eurofins DiscoverX KINOMEscan
Briefly: KINOMEscan 1 μM, CLK4. The assay is classed as binding. Particulars: 1000 nM; Entrez CLK4; read-out: Percent Control.
Source text: as §1

The target of the next assay is T13, ERK4 (Homo sapiens, UniProt P31152).
T13 construct: purchased Eurofins DiscoverX KINOMEscan
Briefly: KINOMEscan 1 μM, ERK4. The assay is classed as binding. Particulars: 1000 nM; Entrez MAPK4; read-out: Percent Control.
Source text: as §1

In a further assay the target is T14, MYLK4 (Homo sapiens, UniProt Q86YV6).
T14 construct: purchased Eurofins DiscoverX KINOMEscan
Briefly: KINOMEscan 1 μM, MYLK4. Particulars: 1000 nM; Entrez MYLK4; read-out: Percent Control. The assay is classed as binding.
Source text: as §1

The target in a further assay is T15, p38-beta (Homo sapiens, UniProt Q15759).
T15 construct: purchased Eurofins DiscoverX KINOMEscan
Briefly: KINOMEscan 1 μM, p38-beta. The assay is classed as binding. Particulars: 1000 nM; Entrez MAPK11; read-out: Percent Control.
Source text: as §1

The next assay concerns the target T16, TYRO3 (Homo sapiens, UniProt Q06418).
T16 construct: purchased Eurofins DiscoverX KINOMEscan
As to the kind of experiment: DiscoverX KINOMEscan binding assay at 1 μM, TYRO3. Particulars: Compound Concentration 1000 nM, read-out: Percent Control.
Source text: as §1

Another assay addresses T17, PIK3CA(C420R) (Homo sapiens, UniProt P42336, C420R).
T17 construct: purchased Eurofins DiscoverX KINOMEscan
As to the kind of experiment: KINOMEscan at 1 μM, PIK3CA(C420R). Particulars: 1000 nM, read-out: Percent Control. The assay is classed as binding. An excerpt: (§2) Supplement cells-12-00287-s001.zip/File S2. KinomeScan data for the CAMKK2 probe and negative control.xlsx, sheet "SGC-CAMKK2-1N" | column: Percent Control

For another assay, the target named is T18, VPS34 (Homo sapiens, UniProt Q8NEB9).
T18 construct: purchased Eurofins DiscoverX KINOMEscan
Briefly: KINOMEscan at 1 μM, VPS34. The assay is classed as binding. Particulars: 1000 nM, read-out: Percent Control.
Source text: as §2

The target of another assay is T19, GRK7 (Homo sapiens, UniProt Q8WTQ7).
T19 construct: purchased Eurofins DiscoverX KINOMEscan
Briefly: KINOMEscan at 1 μM, GRK7. The assay is classed as binding. Particulars: 1000 nM, read-out: Percent Control.
Source text: as §2

The target in another assay is T20, CDC2L5 (Homo sapiens, UniProt Q14004).
T20 construct: purchased Eurofins DiscoverX KINOMEscan
T20 sequence (Q14004 whole entry): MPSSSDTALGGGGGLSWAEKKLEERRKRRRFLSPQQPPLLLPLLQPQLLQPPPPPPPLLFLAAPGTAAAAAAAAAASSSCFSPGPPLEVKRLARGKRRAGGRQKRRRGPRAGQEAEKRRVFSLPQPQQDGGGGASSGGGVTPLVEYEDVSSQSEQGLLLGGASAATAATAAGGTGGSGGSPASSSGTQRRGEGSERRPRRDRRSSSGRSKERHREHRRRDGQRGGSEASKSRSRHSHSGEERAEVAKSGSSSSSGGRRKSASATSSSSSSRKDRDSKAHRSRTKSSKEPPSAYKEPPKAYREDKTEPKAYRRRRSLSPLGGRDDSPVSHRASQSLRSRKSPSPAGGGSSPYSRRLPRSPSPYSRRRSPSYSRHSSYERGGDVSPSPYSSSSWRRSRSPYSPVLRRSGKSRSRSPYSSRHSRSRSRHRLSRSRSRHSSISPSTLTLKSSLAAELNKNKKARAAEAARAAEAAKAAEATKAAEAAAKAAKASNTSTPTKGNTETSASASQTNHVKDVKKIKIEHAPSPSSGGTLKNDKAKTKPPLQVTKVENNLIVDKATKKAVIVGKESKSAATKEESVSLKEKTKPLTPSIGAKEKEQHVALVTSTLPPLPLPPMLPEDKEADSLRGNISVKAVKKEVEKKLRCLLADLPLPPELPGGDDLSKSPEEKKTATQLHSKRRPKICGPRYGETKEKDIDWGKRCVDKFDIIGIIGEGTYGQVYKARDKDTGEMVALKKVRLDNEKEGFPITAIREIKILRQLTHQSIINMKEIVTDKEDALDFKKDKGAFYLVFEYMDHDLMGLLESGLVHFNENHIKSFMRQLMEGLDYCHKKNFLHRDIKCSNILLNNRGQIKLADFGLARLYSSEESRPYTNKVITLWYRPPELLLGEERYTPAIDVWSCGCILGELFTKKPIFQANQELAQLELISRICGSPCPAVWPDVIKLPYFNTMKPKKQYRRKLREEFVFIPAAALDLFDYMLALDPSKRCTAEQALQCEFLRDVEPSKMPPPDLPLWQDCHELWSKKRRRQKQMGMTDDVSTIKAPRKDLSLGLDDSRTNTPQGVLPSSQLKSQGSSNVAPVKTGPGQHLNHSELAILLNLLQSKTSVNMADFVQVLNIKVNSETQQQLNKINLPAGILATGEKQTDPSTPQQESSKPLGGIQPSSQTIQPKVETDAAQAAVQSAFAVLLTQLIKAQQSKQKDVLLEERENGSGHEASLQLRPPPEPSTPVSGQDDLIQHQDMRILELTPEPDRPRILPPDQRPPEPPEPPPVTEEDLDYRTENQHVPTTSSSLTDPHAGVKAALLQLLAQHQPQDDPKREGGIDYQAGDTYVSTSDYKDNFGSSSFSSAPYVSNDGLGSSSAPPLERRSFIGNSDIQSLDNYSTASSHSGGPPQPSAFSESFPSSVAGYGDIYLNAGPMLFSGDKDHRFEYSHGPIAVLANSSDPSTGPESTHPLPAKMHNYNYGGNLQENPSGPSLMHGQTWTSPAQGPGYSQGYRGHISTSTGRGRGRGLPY
Briefly: KINOMEscan at 1 μM, CDC2L5. The assay is classed as binding. Particulars: 1000 nM, read-out: Percent Control.
Source text: as §2

Another assay deals with T21, CTK (Homo sapiens, UniProt P42679).
T21 construct: purchased Eurofins DiscoverX KINOMEscan
T21 sequence (P42679 whole entry): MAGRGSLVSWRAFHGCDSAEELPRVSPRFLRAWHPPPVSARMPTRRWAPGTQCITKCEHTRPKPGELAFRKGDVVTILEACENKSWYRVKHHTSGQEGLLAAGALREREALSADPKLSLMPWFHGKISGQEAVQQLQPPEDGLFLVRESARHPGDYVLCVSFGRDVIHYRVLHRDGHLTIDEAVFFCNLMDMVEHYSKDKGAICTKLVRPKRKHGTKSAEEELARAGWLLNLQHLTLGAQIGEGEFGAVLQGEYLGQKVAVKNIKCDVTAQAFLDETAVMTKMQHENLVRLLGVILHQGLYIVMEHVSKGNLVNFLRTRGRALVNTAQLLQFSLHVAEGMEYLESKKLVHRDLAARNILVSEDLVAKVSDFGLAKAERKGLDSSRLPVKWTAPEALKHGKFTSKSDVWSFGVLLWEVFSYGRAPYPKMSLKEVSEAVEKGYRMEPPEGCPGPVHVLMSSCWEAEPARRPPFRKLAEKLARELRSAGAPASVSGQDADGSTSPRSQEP
As to the kind of experiment: KINOMEscan at 1 μM, CTK. Particulars: 1000 nM, read-out: Percent Control. The assay is classed as binding.
Source text: as §2

A further assay has as its target T22, EPHB6 (Homo sapiens, UniProt O15197).
T22 construct: purchased Eurofins DiscoverX KINOMEscan
As to the kind of experiment: KINOMEscan at 1 μM, EPHB6. Particulars: 1000 nM, read-out: Percent Control. The assay is classed as binding.
Source text: as §2

The target in the next assay is T23, JNK2 (Homo sapiens, UniProt P45984).
T23 construct: purchased Eurofins DiscoverX KINOMEscan
Briefly: KINOMEscan at 1 μM, JNK2. The assay is classed as binding. Particulars: 1000 nM, read-out: Percent Control.
Source text: as §2

A further assay has as its target T24, STK39 (Homo sapiens, UniProt Q9UEW8).
T24 construct: purchased Eurofins DiscoverX KINOMEscan
As to the kind of experiment: KINOMEscan at 1 μM, STK39. The assay is classed as binding. Particulars: 1000 nM, read-out: Percent Control.
Source text: as §2

In another assay the target is T25, LZK (Homo sapiens, UniProt O43283).
T25 construct: purchased Eurofins DiscoverX KINOMEscan
As to the kind of experiment: KINOMEscan at 1 μM, LZK. The assay is classed as binding. Particulars: 1000 nM, read-out: Percent Control.
Source text: as §2

The target of a further assay is T26, DRAK2 (Homo sapiens, UniProt O94768).
T26 construct: purchased Eurofins DiscoverX KINOMEscan
Briefly: KINOMEscan at 1 μM, DRAK2. Particulars: 1000 nM, read-out: Percent Control. The assay is classed as binding.
Source text: as §2

Assay [4] concerns the target T27, RSK3(Kin.Dom.2-C-terminal) (Homo sapiens, UniProt Q15349).
T27 construct: RSK3(Kin.Dom.2-C-terminal); purchased Eurofins DiscoverX KINOMEscan
Briefly: KINOMEscan at 1 μM, RSK3(Kin.Dom.2-C-terminal). The assay is classed as binding. Particulars: 1000 nM, read-out: Percent Control.
Source text: as §2

The target in a further assay is T28, MERTK (Homo sapiens, UniProt Q12866).
T28 construct: purchased Eurofins DiscoverX KINOMEscan
As to the kind of experiment: KINOMEscan at 1 μM, MERTK. The assay is classed as binding. Particulars: 1000 nM, read-out: Percent Control.
Source text: as §2

In the next assay the target is T29, PKMYT1 (Homo sapiens, UniProt Q99640).
T29 construct: purchased Eurofins DiscoverX KINOMEscan
T29 sequence (Q99640 whole entry): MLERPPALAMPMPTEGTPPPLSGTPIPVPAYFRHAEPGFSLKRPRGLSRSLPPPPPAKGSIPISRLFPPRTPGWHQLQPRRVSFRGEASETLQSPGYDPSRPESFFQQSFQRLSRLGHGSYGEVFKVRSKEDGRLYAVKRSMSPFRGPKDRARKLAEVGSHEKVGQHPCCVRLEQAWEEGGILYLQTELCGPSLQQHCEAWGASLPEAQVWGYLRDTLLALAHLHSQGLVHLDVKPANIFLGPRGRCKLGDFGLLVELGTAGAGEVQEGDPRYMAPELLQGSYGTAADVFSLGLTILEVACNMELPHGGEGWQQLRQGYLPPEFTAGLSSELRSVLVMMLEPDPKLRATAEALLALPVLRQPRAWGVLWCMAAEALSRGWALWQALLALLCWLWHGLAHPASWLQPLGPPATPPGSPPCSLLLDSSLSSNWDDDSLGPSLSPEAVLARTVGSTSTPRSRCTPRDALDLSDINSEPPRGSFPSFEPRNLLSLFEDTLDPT
As to the kind of experiment: KINOMEscan at 1 μM, PKMYT1. Particulars: 1000 nM, read-out: Percent Control. The assay is classed as binding.
Source text: as §2

In assay [5] the target is T5, MST1R. As to the kind of experiment: KINOMEscan at 1 μM, MST1R. The assay is classed as binding. Particulars: 1000 nM, read-out: Percent Control.
Source text: as §2

A further assay addresses T30, LTK (Homo sapiens, UniProt P29376).
T30 construct: purchased Eurofins DiscoverX KINOMEscan
As to the kind of experiment: KINOMEscan binding assay at 1 μM, LTK. Particulars: Compound Concentration 1000 nM; read-out: Percent Control.
Source text: as §2

Assay [6] has as its target T31, RSK4(Kin.Dom.2-C-terminal) (Homo sapiens, UniProt Q9UK32).
T31 construct: RSK4(Kin.Dom.2-C-terminal); purchased Eurofins DiscoverX KINOMEscan
Briefly: KINOMEscan binding assay at 1 μM, RSK4(Kin.Dom.2-C-terminal). Particulars: Compound Concentration 1000 nM; read-out: Percent Control.
Source text: as §2

In the next assay the target is T32, TNK1 (Homo sapiens, UniProt Q13470).
T32 construct: purchased Eurofins DiscoverX KINOMEscan
As to the kind of experiment: KINOMEscan binding assay at 1 μM, TNK1. Particulars: Compound Concentration 1000 nM; read-out: Percent Control.
Source text: as §2

This note sets out measurements from paper PMC9856672, “SGC-CAMKK2-1: A Chemical Probe for CAMKK2” (Cells, 2023).

T5 sequence (Q04912 25-1400): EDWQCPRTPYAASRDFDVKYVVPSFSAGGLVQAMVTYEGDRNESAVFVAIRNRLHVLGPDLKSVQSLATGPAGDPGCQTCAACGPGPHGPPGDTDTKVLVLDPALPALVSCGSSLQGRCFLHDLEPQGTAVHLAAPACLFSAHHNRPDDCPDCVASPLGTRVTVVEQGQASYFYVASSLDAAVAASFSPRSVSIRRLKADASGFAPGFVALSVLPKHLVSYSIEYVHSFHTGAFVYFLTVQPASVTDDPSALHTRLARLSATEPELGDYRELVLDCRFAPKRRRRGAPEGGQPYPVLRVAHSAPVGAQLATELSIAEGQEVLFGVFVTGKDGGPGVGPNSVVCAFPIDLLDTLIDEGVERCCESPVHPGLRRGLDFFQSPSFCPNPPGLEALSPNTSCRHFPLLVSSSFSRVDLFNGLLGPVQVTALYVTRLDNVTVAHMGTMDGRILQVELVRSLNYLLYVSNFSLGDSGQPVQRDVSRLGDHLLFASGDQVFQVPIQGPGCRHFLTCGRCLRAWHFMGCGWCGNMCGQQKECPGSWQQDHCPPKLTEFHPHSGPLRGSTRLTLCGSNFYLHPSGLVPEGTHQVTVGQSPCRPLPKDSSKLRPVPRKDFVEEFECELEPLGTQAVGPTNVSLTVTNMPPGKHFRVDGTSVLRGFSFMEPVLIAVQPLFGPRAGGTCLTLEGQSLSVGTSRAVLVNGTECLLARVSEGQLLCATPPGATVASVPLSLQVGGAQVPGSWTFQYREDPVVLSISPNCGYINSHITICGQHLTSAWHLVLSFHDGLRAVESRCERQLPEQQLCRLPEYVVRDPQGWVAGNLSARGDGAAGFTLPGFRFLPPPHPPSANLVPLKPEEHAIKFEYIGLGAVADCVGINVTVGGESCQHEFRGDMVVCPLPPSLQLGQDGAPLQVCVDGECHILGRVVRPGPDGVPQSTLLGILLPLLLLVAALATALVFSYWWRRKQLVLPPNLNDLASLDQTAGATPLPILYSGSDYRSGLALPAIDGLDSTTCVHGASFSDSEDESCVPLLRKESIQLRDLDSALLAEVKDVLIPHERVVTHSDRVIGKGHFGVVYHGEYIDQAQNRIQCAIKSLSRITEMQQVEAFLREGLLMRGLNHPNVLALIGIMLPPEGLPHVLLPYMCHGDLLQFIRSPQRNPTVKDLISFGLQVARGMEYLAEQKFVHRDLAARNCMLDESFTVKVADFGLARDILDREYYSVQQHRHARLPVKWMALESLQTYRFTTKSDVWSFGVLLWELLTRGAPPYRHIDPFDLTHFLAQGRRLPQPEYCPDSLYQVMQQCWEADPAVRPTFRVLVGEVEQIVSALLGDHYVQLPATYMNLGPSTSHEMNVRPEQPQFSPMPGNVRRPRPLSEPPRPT
T11 sequence (P49761 whole entry): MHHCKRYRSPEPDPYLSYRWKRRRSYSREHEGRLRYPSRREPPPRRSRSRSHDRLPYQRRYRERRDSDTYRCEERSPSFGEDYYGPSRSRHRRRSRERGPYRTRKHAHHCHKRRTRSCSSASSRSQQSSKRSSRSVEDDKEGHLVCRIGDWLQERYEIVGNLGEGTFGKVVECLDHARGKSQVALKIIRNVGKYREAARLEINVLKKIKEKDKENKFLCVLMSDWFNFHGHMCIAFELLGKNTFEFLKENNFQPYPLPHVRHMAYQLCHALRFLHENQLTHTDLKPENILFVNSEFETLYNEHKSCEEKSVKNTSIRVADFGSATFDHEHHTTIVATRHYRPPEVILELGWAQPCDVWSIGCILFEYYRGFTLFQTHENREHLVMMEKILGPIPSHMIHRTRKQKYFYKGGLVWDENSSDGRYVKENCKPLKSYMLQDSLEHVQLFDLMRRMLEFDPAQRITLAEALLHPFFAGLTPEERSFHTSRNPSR

With `Cc1cccc(-c2cnc3occ(-c4ccc(C(=O)O)c(C5CCCC5)c4)c3c2)c1` [SGC-CAMKK2-1 (YL-36)], the remaining binding at 1 µM on SgK110 came out at 57%; at PAK6 it was 67%; in assay [1] it was 71%; on TRKC, 81%; at MST1R [2], 86%; on FLT3(D835H) it was 87%. Further, the remaining binding at 1 µM in [3] is 90%; at RIOK1, 92%; at ADCK3 it was 100%; at CAMK2G it was 100%; on CLK3 it was 100%; at CLK4 it was 100%. Also, the remaining binding at 1 µM on ERK4, on MYLK4, on p38-beta and at TYRO3 was 100% throughout.

With `O=C(O)c1ccc(-c2coc3ncc(-c4ccccc4)cc23)cc1Cl` [SGC-CAMKK2-1N (UNC-YL-83)], the remaining binding at 1 µM on PIK3CA(C420R) was determined as 0%; on VPS34, 44%; at GRK7, 50%; on CDC2L5, 57%; at CTK it was 63%; at EPHB6, 75%. Also, the remaining binding at 1 µM on JNK2 turned out to be 76%; on STK39, 77%; on LZK, 81%; at DRAK2, 90%; in assay [4], 91%; on MERTK, 93%. The remaining binding at 1 µM at PKMYT1 was determined as 94%; at MST1R [5], 98%; on LTK, 100%; in assay [6], 100%; on TNK1, 100%.
